Experimental data reported in patent US9359371B2, “Bicyclic substituted pyrimidine compounds” (Xuanzhu Pharma Co., Ltd., priority 2012, dated 2016).
Where two headings read alike, the source gives them in different places.

Tests used:
PDE-5A enzyme = PDE-5A enzyme (Homo sapiens (Human), UniProt O76074); assay: Caliper Mobility-Shift PDE-5A Assay; type: biochemical; conditions: Table 1; Avanafil value is the control
Description: Experiment 1: Measurement of Enzymatic Activity In Vitro
PDE-5A enzyme: humanized PDE-5 enzyme, SignalChem, Cat#93-31G-20.
Method: enzyme assay, Caliper Mobility-Shift PDE-5A Assay:
The test compound was accurately weighed, dissolved in DMSO, mixed thoroughly and formulated into 10 mM.
(§1) The maximum final concentration of the compound was 10 μM. The plate was incubated at 30° C. for 1 h, and 20 μL of 70 μM EDTA was then added to stop the reaction. 26 μL of solution of each well was transferred to a 384-well plate. The conversion was read on a EZ reader II. The inhibition rate was calculated by the formula below, and used to calculate IC50 by Prism 5.0 Inhibition rate=[Conversion (ZPE)−Conversion (sample)]×100/[Conversion (ZPE)−Conversion (HPE)]
Note: HPE: control without enzyme; ZPE: control without a test compound

[1] = Pharmacokinetics (PK) in SD rats; type: in vivo; conditions: rat; for AUC(0-inf) / half-life / Cmax / Tmax / bioavailability: SD, plasma; for bioavailability: read-out: F % (absolute bioavailability)
Description: Experiment 9: Assay of Pharmacokinetics (PK) of the Compounds of the Present Invention in SD Rats
Compound 1-54 of the present invention were prepared by the methods described in Example 1 to Example 54 of the present invention.
The control drug Avanafil, of which the structure was stated above, was purchased commercially.
Collection of the rat's blood: The animal was fixed. The tail was warmed with a water bath 10 min before the collection time. About 200 μL of whole blood was collected from the tail vein. The collected blood was collected into anticoagulant tubes containing heparin sodium. The blood samples were centrifuged at 4° C. by 8000 rpm for 6 min to give the plasma samples, which should be prepared within 30 min after the collection of blood. The plasma samples were stored in a freezer of −80° C. until test.
The result output by Analyst 1.5.1 of AB Company was used as the concentration of the tested sample (plasma sample). The mean value, standard deviation, variable coefficient and the like were calculated by Microsoft Excel (except for the result directly output by Analyst 1.5.1). Parameters of PK were calculated by Pharsight Phoenix 6.2 software. Formula for calculating oral bioavailability: F %=AUCinf−po*Doseiv/AUCinf−iv*Dosepo.

[2] = biological target: PDE-5 enzyme (human blood platelets) (Homo sapiens (Human), UniProt O76074); assay: PDE-5 enzyme assay, [3H]cGMP; type: biochemical
PDE-11 = PDE-11 (Homo sapiens (Human), UniProt Q9HCR9); assay: Caliper Mobility-Shift PDE-11 Assay; type: biochemical; conditions: Table 4; maximum final concentration 10 μM
PDE-11, sequence (Q9HCR9 whole entry): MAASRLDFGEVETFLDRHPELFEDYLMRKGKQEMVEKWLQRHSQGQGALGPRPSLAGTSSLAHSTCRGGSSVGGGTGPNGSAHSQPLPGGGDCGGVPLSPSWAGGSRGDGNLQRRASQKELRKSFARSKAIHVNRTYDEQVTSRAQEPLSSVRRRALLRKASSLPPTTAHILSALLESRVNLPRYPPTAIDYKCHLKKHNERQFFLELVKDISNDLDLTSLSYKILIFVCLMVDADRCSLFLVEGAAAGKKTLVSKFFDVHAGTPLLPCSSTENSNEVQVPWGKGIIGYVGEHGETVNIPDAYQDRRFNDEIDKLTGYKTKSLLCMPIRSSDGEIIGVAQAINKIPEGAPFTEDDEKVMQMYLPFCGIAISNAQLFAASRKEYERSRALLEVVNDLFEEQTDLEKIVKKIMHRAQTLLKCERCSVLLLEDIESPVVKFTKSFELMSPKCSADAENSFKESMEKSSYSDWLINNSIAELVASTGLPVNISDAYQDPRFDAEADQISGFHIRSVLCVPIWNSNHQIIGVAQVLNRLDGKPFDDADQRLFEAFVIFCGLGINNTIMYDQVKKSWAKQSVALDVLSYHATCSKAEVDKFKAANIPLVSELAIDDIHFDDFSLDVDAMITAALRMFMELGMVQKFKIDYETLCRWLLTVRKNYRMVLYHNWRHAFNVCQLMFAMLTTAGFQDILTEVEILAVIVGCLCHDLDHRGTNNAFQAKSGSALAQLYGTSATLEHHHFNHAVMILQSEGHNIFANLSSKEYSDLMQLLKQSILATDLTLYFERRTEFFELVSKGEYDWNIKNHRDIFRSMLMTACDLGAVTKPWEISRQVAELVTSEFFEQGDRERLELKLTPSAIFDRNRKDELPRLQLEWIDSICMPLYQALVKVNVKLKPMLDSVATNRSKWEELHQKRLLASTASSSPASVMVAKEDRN
Description: Experiment 4: Measurement of Pharmacological Activity on PDE-11 Enzyme In Vitro
Method: enzyme assay, Caliper Mobility-Shift PDE-11 Assay
The test compound was accurately weighed, dissolved in DMSO, mixed thoroughly and formulated into 10 mM. The above stock solution was diluted to a concentration of 0.5 mM with DMSO, and then was gradiently diluted by a dilution factor of 3.162, resulting in 11 concentrations in total.
as §1, with “To a 96-well plate, 20 μL of 10 μM FL-cGMP as the substrate was added; then 1 μL solution of the compound in DMSO or DMSO solution without compound was added; and then 29 μL of 0.28 ng/μL PDE-11 enzyme buffer (100 mM Hepes pH 7.5, 5 mM MgCl2, 0.002% Brij-35) was added. The maximum” for “The maximum”, “II. The Inhibition rate was” for “II. The inhibition rate was”
Note: HPE: control without enzyme; ZPE: control without compound

bovine retinal PDE-6 [3] = assay: PDE-6 enzyme assay, [3H]cGMP; type: biochemical; conditions: for Selectivity (PDE-6/PDE-5): IC50 for PDE-6/IC50 for PDE-5; for selectivity on PDE-5 enzyme versus PDE-6 (in words): selectivity >70 called high
Description: (§2) Experiment 3: Measurement of Enzyme Activity on PDE-6 Enzyme In Vitro
(§3) Source of enzyme: PDE-6, bovine retinal PDE-6
(§4) Method: The test compound or solvent was incubated at 25° C. for 15 min with enzyme solution (0.2 μg/mL) in Tris-HCl buffer of pH 7.5. 100 μM cGMP and 0.03 μM [^3H] cGMP were then added to activate the reaction. The mixture was incubated for 20 min. The reaction was stopped at 100° C. By addition of snake venom nucleotidase, the product [^3H] GMP was converted into [^3H] Guanosine, which was separated with AG1-X2 resin. The amount of [^3H] Guanosine was measured.

bovine retinal PDE-6 [4] = biological target: bovine retinal PDE-6 (Bos taurus (Bovine), UniProt P11541+P23439); assay: PDE-6 enzyme assay, [3H]cGMP; type: biochemical
bovine retinal PDE-6 (Bos taurus (Bovine), UniProt P11541+P23439), sequence (P11541 whole entry, looked up): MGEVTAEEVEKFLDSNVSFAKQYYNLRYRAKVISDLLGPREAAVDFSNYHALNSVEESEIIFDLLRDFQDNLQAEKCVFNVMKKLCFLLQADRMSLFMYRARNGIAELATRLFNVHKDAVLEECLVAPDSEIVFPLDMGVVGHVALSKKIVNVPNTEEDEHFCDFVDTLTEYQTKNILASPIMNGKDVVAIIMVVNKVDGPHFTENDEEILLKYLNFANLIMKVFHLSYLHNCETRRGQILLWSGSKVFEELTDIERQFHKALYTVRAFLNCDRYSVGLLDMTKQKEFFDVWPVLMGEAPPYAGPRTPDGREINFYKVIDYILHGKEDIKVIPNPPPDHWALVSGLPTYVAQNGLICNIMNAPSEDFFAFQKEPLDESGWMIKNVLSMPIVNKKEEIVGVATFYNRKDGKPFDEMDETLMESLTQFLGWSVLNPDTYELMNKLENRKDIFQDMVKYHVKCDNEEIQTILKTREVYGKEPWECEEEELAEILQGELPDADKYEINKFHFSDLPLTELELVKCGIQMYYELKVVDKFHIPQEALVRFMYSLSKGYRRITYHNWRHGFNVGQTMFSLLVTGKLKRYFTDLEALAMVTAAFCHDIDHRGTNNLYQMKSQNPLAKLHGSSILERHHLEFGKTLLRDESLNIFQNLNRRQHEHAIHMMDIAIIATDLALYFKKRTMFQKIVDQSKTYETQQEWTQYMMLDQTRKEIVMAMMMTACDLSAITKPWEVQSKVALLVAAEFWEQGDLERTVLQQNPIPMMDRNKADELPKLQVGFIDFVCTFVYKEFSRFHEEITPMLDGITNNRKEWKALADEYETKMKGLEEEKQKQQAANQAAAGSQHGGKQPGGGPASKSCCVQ
bovine retinal PDE-6 (Bos taurus (Bovine), UniProt P11541+P23439), sequence (P23439 whole entry, looked up): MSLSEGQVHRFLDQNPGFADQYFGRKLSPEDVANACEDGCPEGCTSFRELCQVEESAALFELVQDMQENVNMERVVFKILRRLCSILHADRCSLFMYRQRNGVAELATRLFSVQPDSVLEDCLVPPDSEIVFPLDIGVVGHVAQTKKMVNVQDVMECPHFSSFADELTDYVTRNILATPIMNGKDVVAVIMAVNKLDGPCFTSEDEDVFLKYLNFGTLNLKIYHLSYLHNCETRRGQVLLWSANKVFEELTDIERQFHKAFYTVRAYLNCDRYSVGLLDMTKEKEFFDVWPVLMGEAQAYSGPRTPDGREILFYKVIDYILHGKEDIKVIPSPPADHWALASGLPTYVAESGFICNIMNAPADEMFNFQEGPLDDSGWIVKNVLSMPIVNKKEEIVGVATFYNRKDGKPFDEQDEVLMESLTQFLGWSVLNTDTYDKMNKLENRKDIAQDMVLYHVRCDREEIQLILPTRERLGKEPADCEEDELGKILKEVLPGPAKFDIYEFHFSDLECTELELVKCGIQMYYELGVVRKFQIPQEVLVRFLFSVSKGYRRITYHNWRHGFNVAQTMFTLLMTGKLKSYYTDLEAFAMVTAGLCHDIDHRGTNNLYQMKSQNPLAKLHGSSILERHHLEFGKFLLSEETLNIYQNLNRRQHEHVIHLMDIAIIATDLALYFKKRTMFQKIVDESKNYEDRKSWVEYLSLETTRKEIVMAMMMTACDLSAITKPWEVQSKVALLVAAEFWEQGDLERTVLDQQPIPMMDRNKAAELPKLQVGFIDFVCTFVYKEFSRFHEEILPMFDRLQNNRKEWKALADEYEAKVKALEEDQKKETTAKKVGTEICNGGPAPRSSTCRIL
Description: as §2, §3, §4

hERG channel = hERG channel (Homo sapiens (Human), UniProt Q12809); assay: hERG potassium channel whole-cell patch clamp on CHO-K1 cell line
hERG channel, sequence (Q12809 whole entry): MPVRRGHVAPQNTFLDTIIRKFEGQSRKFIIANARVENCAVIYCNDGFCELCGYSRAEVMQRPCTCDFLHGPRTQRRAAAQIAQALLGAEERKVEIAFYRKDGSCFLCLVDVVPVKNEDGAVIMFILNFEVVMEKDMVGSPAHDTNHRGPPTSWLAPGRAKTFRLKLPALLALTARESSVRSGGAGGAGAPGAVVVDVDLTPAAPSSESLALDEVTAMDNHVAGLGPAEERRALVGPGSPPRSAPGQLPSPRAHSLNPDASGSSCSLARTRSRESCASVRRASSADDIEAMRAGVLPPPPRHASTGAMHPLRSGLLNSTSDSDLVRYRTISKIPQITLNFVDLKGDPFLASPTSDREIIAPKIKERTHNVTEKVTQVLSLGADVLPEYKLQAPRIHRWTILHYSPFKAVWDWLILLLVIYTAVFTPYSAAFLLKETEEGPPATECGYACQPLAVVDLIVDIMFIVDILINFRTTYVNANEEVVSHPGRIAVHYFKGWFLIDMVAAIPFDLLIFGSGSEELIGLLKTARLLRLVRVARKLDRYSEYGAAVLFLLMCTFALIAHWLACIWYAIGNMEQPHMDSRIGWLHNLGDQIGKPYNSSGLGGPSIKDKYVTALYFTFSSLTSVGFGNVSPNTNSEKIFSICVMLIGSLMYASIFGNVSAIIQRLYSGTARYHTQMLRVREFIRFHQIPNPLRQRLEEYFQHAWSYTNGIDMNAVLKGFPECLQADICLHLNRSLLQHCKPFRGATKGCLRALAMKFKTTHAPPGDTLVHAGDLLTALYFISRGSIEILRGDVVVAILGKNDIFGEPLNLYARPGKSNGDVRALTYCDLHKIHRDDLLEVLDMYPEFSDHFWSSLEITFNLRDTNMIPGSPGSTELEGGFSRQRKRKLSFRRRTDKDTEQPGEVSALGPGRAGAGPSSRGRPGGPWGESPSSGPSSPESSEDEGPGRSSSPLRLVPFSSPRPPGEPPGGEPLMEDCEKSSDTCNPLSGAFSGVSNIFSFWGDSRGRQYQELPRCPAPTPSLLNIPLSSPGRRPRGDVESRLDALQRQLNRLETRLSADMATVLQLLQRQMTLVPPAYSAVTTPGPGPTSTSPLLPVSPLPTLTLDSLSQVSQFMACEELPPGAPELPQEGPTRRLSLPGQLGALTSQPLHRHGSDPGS
From the text: Experiment 8: Detection of Inhibitory Effect of the Compounds of the Present Invention on hERG Potassium Channel by the Patch Clamp Method
Rapidly activated human delayed rectifying outward potassium current (IKr) is mainly mediated by hERG ion channel and is involved in repolarization of human cardiac muscle cell. Clinically, blocking of the current by a drug is the main cause of QT interval prolongation syndrome, acute arrhythmia and even sudden death. The main purpose of the experiment is to test the blocking effect of the compounds of the present invention on hERG channel, and to determine the half maximal inhibitory concentration (IC50) of the compounds.
The experiment mainly included: (1) recording hERG current by patch clamp technique on CHO-K1 cell line which stably expressed hERG channel; (2) calculating the Inhibition rate of each concentration according to hERG tail current; (3) testing each compound at 5 concentrations to calculate IC50; (4) testing 2 cells at each concentration; (5) a positive control.
The structures and synthesis of Compound 88 (WO-88) and Compound 93 (WO-93) as disclosed in WO200119802A were described in Example 55 and Example 56.
Drug for positive control: Amitriptyline hydrochloride (Sigma-Aldrich, an international standard blocker for hERG channel)
Pippette Solution (in mM): KCl 120, KOH 31.25, CaCl2 5.374, MgCl2 1.75, Ethylene glycol-bis(β-aminoethyl ether)-N,N,N′,N′-tetraacetic acid (EGTA) 10, HEPES 10, Na2-ATP 4, adjusted to a pH of 7.2 with 1N potassium hydroxide; adjusted to an osmotic pressure of 280-290 mOsm; preserved at −20° C. after filtration.
Preparation of compounds: Some of the compounds of the present invention and Amitriptyline hydrochloride as the positive control drug were separately dissolved in 100% DMSO (Merck, 61850125001730), then prepared into stock solutions of 30 mM. Before the experiment, the above stock solutions were diluted with DMSO to a concentration of 1000-fold of the experimental concentration. Then the diluted solutions were further diluted with extracellular solution by 1:1000 to the required experimental concentration. The final concentration of DMSO in the extracellular solution was kept as 0.1%.
Stable cell line CHO-hERG was purchased from AVIVA Company. The hERG current on the cell line was recorded. For the purpose of quality control, the smallest seal resistance was no less than 500 MΩ, and the hERG current was no less than 0.4 nA.
The hERG current was recorded by a whole-cell patch clamp technique. Cell suspension was added into a 35-mm culture dish. The culture dish was placed on the objective table of an inverted microscope. Upon cell attachment, perfusion was conducted with the extracellular solution at a flow rate of 1-2 mL/min.
Glass microelectrode with the pipette tip resistance of 2-5 MΩ was controlled by a microelectrode puller via a two-step process. After the whole-cell record was set up, the clamp potential was kept at −80 mV. The cell was depolarized to +60 mV by applying a voltage stimulus, and then repolarized to −50 mV to obtain the hERG tail current. Recordation was conducted after the current was stable. The extracellular perfusion was started from the lowest concentration, with 5-10 min for each concentration until the current was stable, and then conducted with the next concentration.
Stimulus payment and signal collection were performed by A/D-D/A conversion using Digidata 1440 (Molecular Devices) and pCLAMP software (Version 10.2, Molecular Devices). Signal amplification was performed on a patch clamp amplifier (Multiclamp 700B, Molecular Devices), with a filter of 1 KHz. Further data analysis and curve fitting were conducted by Clampfit (version 10.2, Molecular Devices) and Prism. The data were presented as mean value±standard deviation.
In the process of data analysis, the peak value and the baseline of the tail current were corrected when determining the blocking effect on hERG.

[5] = Table 2, human blood platelet enzyme, read-out: IC50 on PDE-5
[6] = Table 4-1, read-out: PDE-5 (IC50 nM)
[7] = Table 3, read-out: IC50 on PDE-6
[8] = Table 4-1, read-out: PDE-6 (IC50 nM)
[9] = po, intragastric administration, 5 mg/kg
[10] = po, intragastric administration, 1 mg/kg

Structure (SMILES) | AUC(0-inf) ([1]; intravenous injection, 1 mg/kg) [ng·h/mL] | half-life ([1]; intravenous injection, 1 mg/kg) [h] | Cl_obs ([1]; intravenous injection, 1 mg/kg) [mL/min/kg] | Vss_obs ([1]; intravenous injection, 1 mg/kg) [L/kg] | IC50 [2, 5] [nM] | IC50 [2, 6] [nM] | Selectivity (PDE-6/PDE-5) (bovine retinal PDE-6 [3]) | IC50 (bovine retinal PDE-6 [4]; [7]) [nM] | IC50 (bovine retinal PDE-6 [4]; [8]) [nM] | AUC(0-inf) [1, 9] [ng·h/mL] | Cmax [1, 9] [ng/mL] | Tmax [1, 9] [h] | half-life [1, 9] [h] | bioavailability [1, 9] [%] | AUC(0-inf) ([1]; intravenous injection, 2 mg/kg) [ng·h/mL] | half-life ([1]; intravenous injection, 2 mg/kg) [h] | Cl_obs ([1]; intravenous injection, 2 mg/kg) [mL/min/kg] | Vss_obs ([1]; intravenous injection, 2 mg/kg) [L/kg] | IC50 (hERG channel) [nM] | selectivity on PDE-5 enzyme versus PDE-6 (in words) (bovine retinal PDE-6 [3]) | also measured
COc1ccc(CNc2nc(N3CCC4(CC4)C3)ncc2C(=O)NCCN2CCN(C)CC2)cc1Cl [Compound 46, 4-((3-chloro-4-methoxybenzyl)amino)-N-(2-(4-methylpiperazin-1-yl)ethyl)-2-(5-azaspiro[2.4]heptan-5-yl)pyrimidine-5-formamide] | 214 | 13.9 | 79 | 86.40 | 0.31 | 0.31 | 1000 | 310 | 310 |  |  |  |  |  |  |  |  |  |  |  | IC50 (PDE-5A enzyme): 14.9 nM; IC50 (PDE-11): > 10000 nM
COc1ccc(CNc2nc(N3CC4CC4C3)ncc2C(=O)N[C@H]2CC[C@H](O)CC2)cc1F (stereo partly drawn) [Compound 48, 2-(3-azabicyclo[3.1.0]hexan-3-yl)-4-((3-fluoro-4-methoxybenzyl)amino)-N-(trans-4-hydroxycyclohexyl)pyrimidine-5-formamide] |  |  |  |  | 7.99 | 7.99 | 140 | 1110 | 1110 | 2330 | 415 | 2 | 2 | 63 | 2060 | 4.4 | 17 | 4.59 | 8760 | higher selectivity on PDE-5 enzyme than to PDE-6 | inhibitory effect on hERG channel (in words) (hERG channel): slight inhibitory effect
COc1ccc(CNc2nc(N3CC4CC4C3)ncc2C(=O)N[C@H]2CC[C@H](O)CC2)cc1C (stereo partly drawn) [Compound 50, 2-(3-azabicyclo[3.1.0]hexan-3-yl)-N-((trans)-4-hydroxycyclohexyl)-4-((4-methoxy-3-methylbenzyl)amino)pyrimidine-5-formamide] |  |  |  |  | 7.72 | 7.72 | 85 | 660 | 660 | 4720 | 377 | 6 | 5.4 | 65 | 2580 | 4.1 | 13 | 4.48 | > 30000 | higher selectivity on PDE-5 enzyme than to PDE-6 | inhibitory effect on hERG channel (in words) (hERG channel; human, CHO-K1 cells stably expressing hERG channel, pH 7.4): none of Compound 3, 11 and 50 of the present invention had a significant inhibitory effect
COc1ccc(CNc2nc(N3CCC[C@H]3CO)ncc2C(=O)N[C@H]2CC[C@H](O)CC2)cc1Cl [WO-88, N-((trans)-4-hydroxylcyclohexan-1-yl)-4-((3-chloro-4-methoxybenzyl)amino)-2-((s)-2-(hydroxymethyl)tetrahydropyrrole-1-yl)-5-pyrimidine formamide, reference compound] | 347 | 1 | 48.3 | 3.6 |  |  |  |  |  |  |  |  |  |  |  |  |  |  | > 30000 |  | AUC(0-inf) [1, 10]: 63 ng·h/mL; Cmax [1, 10]: 29 ng/mL; Tmax [1, 10]: 0.5 h; half-life [1, 10]: 2.8 h; bioavailability [1, 10]: 23%; IC50 [2]: 0.59 nM
COc1ccc(CNc2nc(N3Cc4cccnc4C3)ncc2C(=O)N[C@H]2CC[C@H](O)CC2)cc1Cl [WO-93, N-(trans-4-hydroxycyclohexan-1-yl)-4-((3-chloro-4-methoxybenzyl)amino)-2-(5H-pyrrolo[3,4-b]pyridin-6(7H)yl)-5-pyrimidine formamide, reference compound] | 709 | 2.6 | 25 | 5.0 |  |  |  |  |  |  |  |  |  |  |  |  |  |  | > 30000 |  | AUC(0-inf) [1, 10]: 89 ng·h/mL; Cmax [1, 10]: 15 ng/mL; Tmax [1, 10]: 4 h; half-life [1, 10]: 2.8 h; bioavailability [1, 10]: 16%
